{"source": "paper PMC7180948", "about": "“New Insights into 4-Anilinoquinazolines as Inhibitors of Cardiac Troponin I–Interacting Kinase (TNNi3K)” (Molecules, 2020)", "assay_in_all_cases": "biochemical", "parameters_in_all_cases": "KINOMEscan competition binding panel (Eurofins DiscoverX), single concentration, % inhibition", "settings_in_all_cases": "read-out: 7 at 1 µM % inhibition", "key": {"ABL2": {"molecular_target": "ABL2 (Homo sapiens, UniProt P42684)", "sequence (P42684 whole entry)": "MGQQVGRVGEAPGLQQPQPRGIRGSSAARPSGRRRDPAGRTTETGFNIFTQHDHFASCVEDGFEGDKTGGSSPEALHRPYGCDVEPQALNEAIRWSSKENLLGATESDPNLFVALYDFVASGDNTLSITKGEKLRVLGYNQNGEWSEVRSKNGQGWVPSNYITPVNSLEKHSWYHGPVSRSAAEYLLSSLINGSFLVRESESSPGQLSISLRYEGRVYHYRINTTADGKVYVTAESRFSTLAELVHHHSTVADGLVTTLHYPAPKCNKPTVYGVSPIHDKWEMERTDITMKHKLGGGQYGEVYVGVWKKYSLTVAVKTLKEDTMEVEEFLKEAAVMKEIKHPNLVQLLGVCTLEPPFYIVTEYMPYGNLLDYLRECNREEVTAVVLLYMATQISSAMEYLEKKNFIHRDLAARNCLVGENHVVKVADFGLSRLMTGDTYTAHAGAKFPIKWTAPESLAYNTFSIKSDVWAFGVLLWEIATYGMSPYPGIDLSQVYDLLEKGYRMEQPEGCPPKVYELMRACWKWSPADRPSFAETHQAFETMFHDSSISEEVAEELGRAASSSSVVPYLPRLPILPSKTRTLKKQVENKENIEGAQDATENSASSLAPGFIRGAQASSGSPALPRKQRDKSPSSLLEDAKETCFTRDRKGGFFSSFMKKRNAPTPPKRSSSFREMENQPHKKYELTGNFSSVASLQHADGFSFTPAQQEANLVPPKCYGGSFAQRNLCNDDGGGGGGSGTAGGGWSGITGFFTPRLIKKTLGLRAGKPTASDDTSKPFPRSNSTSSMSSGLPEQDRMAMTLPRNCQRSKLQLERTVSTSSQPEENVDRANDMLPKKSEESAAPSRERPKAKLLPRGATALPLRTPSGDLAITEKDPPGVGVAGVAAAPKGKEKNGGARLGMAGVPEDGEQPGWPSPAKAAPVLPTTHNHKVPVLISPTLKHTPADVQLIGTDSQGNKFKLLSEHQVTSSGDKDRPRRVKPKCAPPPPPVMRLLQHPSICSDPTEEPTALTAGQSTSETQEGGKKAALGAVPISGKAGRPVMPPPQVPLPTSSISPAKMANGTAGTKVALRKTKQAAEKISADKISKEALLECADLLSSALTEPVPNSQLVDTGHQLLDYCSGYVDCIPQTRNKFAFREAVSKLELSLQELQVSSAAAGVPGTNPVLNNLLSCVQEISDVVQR", "protocol": "(§1) KinomeScan® Assay on 7 and 15 was performed as previously described by EuroFins DiscoverX [24]. GSK114 (7) and 15 were submitted for a KINOMEscan® assay to explore the selectivity profile across >400 human kinases at a compound concentration of 1 µM. […] GSK114 (7) is a narrow-spectrum TNNi3K inhibitor but has some potent off-targets including GAK which has been previously reported for this chemotype. […] If utilized together this set of compounds could be useful to investigate TNNi3K biology."}, "AURKA": {"molecular_target": "AURKA (Homo sapiens, UniProt O14965)", "sequence (O14965 whole entry)": "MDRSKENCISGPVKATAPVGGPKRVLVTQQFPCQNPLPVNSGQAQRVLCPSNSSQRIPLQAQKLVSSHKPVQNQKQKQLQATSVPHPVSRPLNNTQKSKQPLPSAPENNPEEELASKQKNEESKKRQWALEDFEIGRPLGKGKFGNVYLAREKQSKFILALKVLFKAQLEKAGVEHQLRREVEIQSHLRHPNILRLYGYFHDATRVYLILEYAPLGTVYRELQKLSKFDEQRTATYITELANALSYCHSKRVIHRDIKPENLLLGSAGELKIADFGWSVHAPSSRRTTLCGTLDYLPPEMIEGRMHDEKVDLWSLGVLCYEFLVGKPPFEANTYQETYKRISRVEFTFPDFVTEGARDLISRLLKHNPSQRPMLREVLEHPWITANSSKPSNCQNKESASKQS", "protocol": "as §1"}, "CAMK2D": {"molecular_target": "CAMK2D (Homo sapiens, UniProt Q13557)", "protocol": "as §1"}, "CLK3": {"molecular_target": "CLK3 (Homo sapiens, UniProt P49761)", "sequence (P49761 whole entry)": "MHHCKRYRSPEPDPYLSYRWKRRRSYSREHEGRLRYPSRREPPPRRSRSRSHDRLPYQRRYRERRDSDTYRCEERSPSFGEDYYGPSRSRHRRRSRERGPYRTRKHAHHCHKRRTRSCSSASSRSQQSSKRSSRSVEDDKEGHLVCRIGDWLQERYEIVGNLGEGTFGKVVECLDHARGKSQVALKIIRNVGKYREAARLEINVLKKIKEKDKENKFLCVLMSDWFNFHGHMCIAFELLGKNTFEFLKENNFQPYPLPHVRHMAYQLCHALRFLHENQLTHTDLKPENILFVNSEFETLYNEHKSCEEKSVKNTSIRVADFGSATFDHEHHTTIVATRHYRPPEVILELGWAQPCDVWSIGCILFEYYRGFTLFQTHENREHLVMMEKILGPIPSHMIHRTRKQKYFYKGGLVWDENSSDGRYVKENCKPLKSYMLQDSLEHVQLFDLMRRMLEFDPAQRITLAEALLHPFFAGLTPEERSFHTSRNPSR", "protocol": "as §1"}, "CSNK1D": {"molecular_target": "CSNK1D (Homo sapiens, UniProt P48730)", "sequence (P48730 whole entry)": "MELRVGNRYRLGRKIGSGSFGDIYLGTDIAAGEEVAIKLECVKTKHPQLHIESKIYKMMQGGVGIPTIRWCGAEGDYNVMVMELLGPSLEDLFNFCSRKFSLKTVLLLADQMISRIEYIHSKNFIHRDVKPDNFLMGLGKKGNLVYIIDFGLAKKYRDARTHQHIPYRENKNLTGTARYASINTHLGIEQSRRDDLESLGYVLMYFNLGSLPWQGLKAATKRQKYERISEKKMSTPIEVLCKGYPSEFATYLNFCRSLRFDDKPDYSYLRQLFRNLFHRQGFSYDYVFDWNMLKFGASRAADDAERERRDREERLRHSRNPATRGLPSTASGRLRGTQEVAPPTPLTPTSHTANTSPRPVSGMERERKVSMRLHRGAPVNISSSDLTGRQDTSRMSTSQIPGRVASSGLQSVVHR", "protocol": "as §1"}, "CSNK2A2": {"molecular_target": "CSNK2A2 (Homo sapiens, UniProt P19784)", "protocol": "as §1"}, "CTK": {"molecular_target": "T1, CTK (Homo sapiens, UniProt P42679)", "T1 construct": "gene MATK", "protocol": "as §1"}, "EPHA7": {"molecular_target": "EPHA7 (Homo sapiens, UniProt Q15375)", "protocol": "as §1"}, "EPHB2": {"molecular_target": "EPHB2 (Homo sapiens, UniProt P29323)", "sequence (P29323 whole entry)": "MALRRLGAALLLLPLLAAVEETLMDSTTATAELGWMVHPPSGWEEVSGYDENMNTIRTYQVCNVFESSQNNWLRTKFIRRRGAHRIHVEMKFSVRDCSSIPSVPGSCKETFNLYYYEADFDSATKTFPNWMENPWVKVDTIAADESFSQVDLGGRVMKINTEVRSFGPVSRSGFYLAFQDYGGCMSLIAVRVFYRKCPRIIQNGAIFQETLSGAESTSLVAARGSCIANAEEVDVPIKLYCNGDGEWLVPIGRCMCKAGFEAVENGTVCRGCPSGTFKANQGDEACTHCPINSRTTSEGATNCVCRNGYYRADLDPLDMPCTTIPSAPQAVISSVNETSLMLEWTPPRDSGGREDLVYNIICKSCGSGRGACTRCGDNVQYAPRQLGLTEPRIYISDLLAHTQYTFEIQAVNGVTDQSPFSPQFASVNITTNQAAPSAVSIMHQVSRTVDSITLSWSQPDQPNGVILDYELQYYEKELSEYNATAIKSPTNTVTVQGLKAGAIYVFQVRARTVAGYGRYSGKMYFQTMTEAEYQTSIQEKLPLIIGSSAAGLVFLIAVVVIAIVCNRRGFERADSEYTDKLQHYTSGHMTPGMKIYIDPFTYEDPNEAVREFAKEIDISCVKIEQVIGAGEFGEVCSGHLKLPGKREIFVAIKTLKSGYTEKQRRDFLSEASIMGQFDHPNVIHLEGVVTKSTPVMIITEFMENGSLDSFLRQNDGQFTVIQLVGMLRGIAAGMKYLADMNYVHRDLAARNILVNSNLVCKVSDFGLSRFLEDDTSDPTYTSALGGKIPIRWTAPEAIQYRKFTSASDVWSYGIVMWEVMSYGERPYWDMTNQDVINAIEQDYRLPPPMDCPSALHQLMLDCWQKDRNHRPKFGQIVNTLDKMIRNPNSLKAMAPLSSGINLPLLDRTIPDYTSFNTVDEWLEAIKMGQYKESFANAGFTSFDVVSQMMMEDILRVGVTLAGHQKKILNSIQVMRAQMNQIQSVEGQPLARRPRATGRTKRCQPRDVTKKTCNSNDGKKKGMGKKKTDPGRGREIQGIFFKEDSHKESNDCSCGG", "protocol": "as §1"}, "FLT1": {"molecular_target": "FLT1 (Homo sapiens, UniProt P17948)", "protocol": "as §1"}, "FLT3(D835Y)": {"molecular_target": "FLT3(D835Y) (Homo sapiens, UniProt P36888, D835Y)", "protocol": "as §1"}, "ITK": {"molecular_target": "ITK (Homo sapiens, UniProt Q08881)", "sequence (Q08881 whole entry)": "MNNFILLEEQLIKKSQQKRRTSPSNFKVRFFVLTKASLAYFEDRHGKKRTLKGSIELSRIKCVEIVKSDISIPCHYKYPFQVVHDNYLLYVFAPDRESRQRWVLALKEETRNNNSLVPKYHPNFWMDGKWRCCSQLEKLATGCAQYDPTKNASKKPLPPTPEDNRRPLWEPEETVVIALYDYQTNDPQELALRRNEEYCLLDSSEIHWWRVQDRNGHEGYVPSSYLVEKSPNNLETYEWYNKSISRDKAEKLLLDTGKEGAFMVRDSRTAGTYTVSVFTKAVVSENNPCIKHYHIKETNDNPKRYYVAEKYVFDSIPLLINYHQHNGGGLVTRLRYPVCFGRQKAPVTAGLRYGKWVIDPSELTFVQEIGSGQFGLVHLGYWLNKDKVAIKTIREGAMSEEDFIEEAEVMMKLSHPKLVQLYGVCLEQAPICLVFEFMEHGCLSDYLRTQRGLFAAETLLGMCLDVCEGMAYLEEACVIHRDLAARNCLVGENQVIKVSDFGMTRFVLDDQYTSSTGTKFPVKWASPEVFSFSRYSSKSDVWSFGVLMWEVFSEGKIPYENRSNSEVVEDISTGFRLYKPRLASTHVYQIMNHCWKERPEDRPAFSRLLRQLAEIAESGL", "protocol": "as §1"}, "[1]": {"molecular_target": "T2, JAK2(JH1domain-catalytic) (Homo sapiens, UniProt O60674)", "T2 construct": "JH1domain-catalytic", "protocol": "as §1"}, "JNK1": {"molecular_target": "T3, JNK1 (Homo sapiens, UniProt P45983)", "T3 construct": "gene MAPK8", "protocol": "as §1"}, "LIMK2": {"molecular_target": "LIMK2 (Homo sapiens, UniProt P53671)", "protocol": "as §1"}, "MAP3K15": {"molecular_target": "MAP3K15 (Homo sapiens, UniProt Q6ZN16)", "protocol": "as §1"}, "MYO3A": {"molecular_target": "MYO3A (Homo sapiens, UniProt Q8NEV4)", "protocol": "as §1"}, "NEK4": {"molecular_target": "NEK4 (Homo sapiens, UniProt P51957)", "protocol": "as §1"}, "NEK6": {"molecular_target": "NEK6 (Homo sapiens, UniProt Q9HC98)", "protocol": "as §1"}, "NLK": {"molecular_target": "NLK (Homo sapiens, UniProt Q9UBE8)", "protocol": "as §1"}, "PIM1": {"molecular_target": "PIM1 (Homo sapiens, UniProt P11309)", "sequence (P11309 whole entry)": "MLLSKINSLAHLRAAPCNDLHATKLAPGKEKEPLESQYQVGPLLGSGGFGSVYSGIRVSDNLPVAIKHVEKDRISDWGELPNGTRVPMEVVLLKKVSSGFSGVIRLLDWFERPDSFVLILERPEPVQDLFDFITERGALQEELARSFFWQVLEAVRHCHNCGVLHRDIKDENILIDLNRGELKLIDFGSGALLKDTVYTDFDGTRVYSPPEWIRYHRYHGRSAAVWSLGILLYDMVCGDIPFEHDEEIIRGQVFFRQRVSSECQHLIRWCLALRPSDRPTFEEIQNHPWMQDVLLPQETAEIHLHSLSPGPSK", "protocol": "as §1"}, "PIM3": {"molecular_target": "PIM3 (Homo sapiens, UniProt Q86V86)", "protocol": "as §1"}, "PRKCE": {"molecular_target": "PRKCE (Homo sapiens, UniProt Q02156)", "protocol": "as §1"}, "RIPK1": {"molecular_target": "RIPK1 (Homo sapiens, UniProt Q13546)", "protocol": "as §1"}, "SLK": {"molecular_target": "SLK (Homo sapiens, UniProt Q9H2G2)", "protocol": "as §1"}}, "data": [{"smiles": "CNS(=O)(=O)c1ccc(N(C)C)c(Nc2ncnc3cc(OC)c(OC)cc23)c1", "note": "[compound 7, 3-((6,7-dimethoxyquinazolin-4-yl)amino)-4-(dimethylamino)-N-methylbenzenesulfonamide]", "values": [{"measurement": "inhibition at 1 µM", "setting": "ABL2", "result": 0, "unit": "%"}, {"measurement": "inhibition at 1 µM", "setting": "AURKA", "result": 16, "unit": "%"}, {"measurement": "inhibition at 1 µM", "setting": "CAMK2D", "result": 0, "unit": "%"}, {"measurement": "inhibition at 1 µM", "setting": "CLK3", "result": 18, "unit": "%"}, {"measurement": "inhibition at 1 µM", "setting": "CSNK1D", "result": 0, "unit": "%"}, {"measurement": "inhibition at 1 µM", "setting": "CSNK2A2", "result": 13, "unit": "%"}, {"measurement": "inhibition at 1 µM", "setting": "CTK", "result": 1, "unit": "%"}, {"measurement": "inhibition at 1 µM", "setting": "EPHA7", "result": 0, "unit": "%"}, {"measurement": "inhibition at 1 µM", "setting": "EPHB2", "result": 0, "unit": "%"}, {"measurement": "inhibition at 1 µM", "setting": "FLT1", "result": 0, "unit": "%"}, {"measurement": "inhibition at 1 µM", "setting": "FLT3(D835Y)", "result": 13, "unit": "%"}, {"measurement": "inhibition at 1 µM", "setting": "ITK", "result": 0, "unit": "%"}, {"measurement": "inhibition at 1 µM", "setting": "[1]", "result": 9, "unit": "%"}, {"measurement": "inhibition at 1 µM", "setting": "JNK1", "result": 8, "unit": "%"}, {"measurement": "inhibition at 1 µM", "setting": "LIMK2", "result": 0, "unit": "%"}, {"measurement": "inhibition at 1 µM", "setting": "MAP3K15", "result": 4, "unit": "%"}, {"measurement": "inhibition at 1 µM", "setting": "MYO3A", "result": 0, "unit": "%"}, {"measurement": "inhibition at 1 µM", "setting": "NEK4", "result": 12, "unit": "%"}, {"measurement": "inhibition at 1 µM", "setting": "NEK6", "result": 0, "unit": "%"}, {"measurement": "inhibition at 1 µM", "setting": "NLK", "result": 24, "unit": "%"}, {"measurement": "inhibition at 1 µM", "setting": "PIM1", "result": 0, "unit": "%"}, {"measurement": "inhibition at 1 µM", "setting": "PIM3", "result": 0, "unit": "%"}, {"measurement": "inhibition at 1 µM", "setting": "PRKCE", "result": 0, "unit": "%"}, {"measurement": "inhibition at 1 µM", "setting": "RIPK1", "result": 0, "unit": "%"}, {"measurement": "inhibition at 1 µM", "setting": "SLK", "result": 0, "unit": "%"}]}]}
